Two compounds from patent publication US6733690B1, “Laterally substituted curable liquid crystals” (Rolic AG, priority 1999, dated 2004) can be followed below.

A short description of series [1]: Solubility in MPK. The series is classed as physicochemical. The note with it: solvent MPK.

The compound `C=CC(=O)OCCCCCCOc1ccc(C(=O)Oc2ccc(OC(=O)c3ccc(OCCCCCCOC(=O)C=C)cc3)c(C(=O)OCCCCCCCCOc3ccc(-c4ccc(C#N)cc4)cc3)c2)cc1` yielded a melting point of 72 °C. Also, the “Solubility in MPK” value in series [1] stood at 7.2%.

In turn, `C=CC(=O)OCCCCCCOc1ccc(C(=O)Oc2ccc(OC(=O)c3ccc(OCCCCCCOC(=O)C=C)cc3)c(C(=O)OCCOCCOc3ccc(-c4ccc(C#N)cc4)cc3)c2)cc1` came in with a melting point of 54 °C. In addition, the “Solubility in MPK” value in series [1] was 33.2%.
